What all share (format): cell-based, human
One experiment relates to MB9812 cells. Briefly: FLIPR calcium flux assay, tastant response in MB9812 cells. Here is the method: Calcium flux assays were performed as previously described in Strachan et al., “Ribosomal S6 kinase 2 directly phosphorylates the 5-hydroxytryptamine 2A (5-HT2A) serotonin receptor, thereby modulating 5-HT2A signaling,” J Biol Chem 284:5557-5573 (2009). MB9812, NCI-H520 or NCI-H522 cells were trypsinized, counted, and seeded onto clear-bottomed 96 well plates (Greiner Bio-One; Monroe, N.C.) pre-coated with poly-D-lysine, at a density of 7.5×10^5 cells per well. After a 24 hour incubation, media was removed and replaced with a […] assay buffer (20 mM HEPES, 1× HBSS, 2.5 mM probenecid, and Ca^2+ assay dye, pH 7.4) (FLIPR® Calcium Assay Kit; Molecular Device Corp, Sunnyvale, Calif.). After a 1-hour incubation at 37° C., during which the cells were allowed to take up the dye, fluorescence responses of cells were measured with a FLIPRTETRA (Molecular Device Corp; Sunnyvale, Calif.) device upon the addition of variable concentrations of tastant, or vehicle, in the presence of assay buffer (20 mM HEPES, pH 7.4, 1× Hanks Balanced Salt [Invitrogen; Carlsbad, Calif.] and 2.5 mM probenecid). After data acquisition, a subsequent addition of […] was injected into each well, and fluorescence was measured again. Net peak responses to tastants were normalized to net peak responses to thapsigargin. Responses were compared with that of wild-type control MB9812, NCI-H520 or NCI-H522 cells. Statistical and graphical analyses were performed using Prism v. 5.0b (GraphPad Software; La Jolla, Calif.).
MB9812, NCI-H520 and NCI-H522 cells were selected for taste stimulation. The cells were loaded with fluorescent calcium-sensitive dye, treated with a variety of tastants, and monitored for intracellular calcium release with a FLIPR imaging device.
A general note: Calcium assays in cells follow changes in intracellular calcium, usually with a dye or a luminescent sensor.

The test system of the next experiment is NCI-H520 cells. Briefly: FLIPR calcium flux assay, tastant response in NCI-H520 cells. As to the method: (§1) Calcium flux assays were performed as previously described in Strachan et al., “Ribosomal S6 kinase 2 directly phosphorylates the 5-hydroxytryptamine 2A (5-HT2A) serotonin receptor, thereby modulating 5-HT2A signaling,” J Biol Chem 284:5557-5573 (2009). MB9812, NCI-H520 or NCI-H522 cells were trypsinized, counted, and seeded onto clear-bottomed 96 well plates (Greiner Bio-One; Monroe, N.C.) pre-coated with poly-D-lysine, at a density of 7.5×10^5 cells per well. After a 24 hour incubation, media was removed and replaced with a […] assay buffer (20 mM HEPES, 1× HBSS, 2.5 mM probenecid, and Ca^2+ assay dye, pH 7.4) (FLIPR® Calcium Assay Kit; Molecular Device Corp, Sunnyvale, Calif.). After a 1-hour incubation at 37° C., during which the cells were allowed to take up the dye, fluorescence responses of cells were measured with a FLIPRTETRA (Molecular Device Corp; Sunnyvale, Calif.) device upon the addition of variable concentrations of tastant, or vehicle, in the presence of assay buffer (20 mM HEPES, pH 7.4, 1× Hanks Balanced Salt [Invitrogen; Carlsbad, Calif.] and 2.5 mM probenecid). After data acquisition, a subsequent addition of […] was injected into each well, and fluorescence was measured again. Net peak responses to tastants were normalized to net peak responses to thapsigargin. […]

In a further experiment the test system is NCI-H522 cells. Briefly: FLIPR calcium flux assay, tastant response in NCI-H522 cells. Here is the method: as §1

This note sets out measurements from US20130040317A1, “CELL LINES COMPRISING ENDOGENOUS TASTE RECEPTORS AND THEIR USES” (THE UNIVERSITY OF NORTH CAROLINA AT CHAPEL HILL, priority 2011, published 2013).

Read-outs that look alike come from different tables or passages of the source.

With `O=C(CO)[C@@H](O)[C@H](O)[C@H](O)CO` [fructose], the “cell response to tastant (increase in intracellular calcium, FLIPR calcium flux)” value with MB9812 cells is listed as “response”.

As for `C=C1C[C@@]23CC[C@H]4[C@@](C)(CCC[C@@]4(C)C(=O)O[C@@H]4O[C@H](CO)[C@@H](O)[C@H](O)[C@H]4O)[C@@H]2CC[C@]1(O[C@@H]1O[C@H](CO)[C@@H](O)[C@H](O[C@@H]2O[C@H](CO)[C@@H](O)[C@H](O)[C@H]2O)[C@H]1O[C@@H]1O[C@H](CO)[C@@H](O)[C@H](O)[C@H]1O)C3` [Rebaudioside A], the “cell response to tastant (increase in intracellular calcium, FLIPR calcium flux)” value with NCI-H520 cells is “respond”.

As for `CC[N+](CC)(CC(=O)Nc1c(C)cccc1C)Cc1ccccc1` [denatonium-B, denatonium benzoate], the “cell response to tastant (increase in intracellular calcium, FLIPR calcium flux)” value in the experiment on MB9812 cells is “respond”; with MB9812 cells (listed as denatonium B) it was “response”; in the experiment with NCI-H520 cells, “respond”; in the experiment on NCI-H522 cells, “respond”.

As to `OC[C@H]1O[C@@](CO)(O[C@H]2O[C@H](CO)[C@@H](O)[C@H](O)[C@H]2O)[C@@H](O)[C@@H]1O` [sucrose], the “cell response to tastant (increase in intracellular calcium, FLIPR calcium flux)” value in the experiment on MB9812 cells is “response”.
